Kd data for 3 compounds are collected here from PMC4764943, “Inhibitory effect of traditional oriental medicine-derived monoamine oxidase B inhibitor on radioresistance of non-small cell lung cancer” (Scientific Reports, 2016).

Assay [1] deals with T1, MAOB (monoamine oxidase B) (Homo sapiens, UniProt P27338).
T1 construct: recombinant human MAOB
T1 sequence (P27338 2-520): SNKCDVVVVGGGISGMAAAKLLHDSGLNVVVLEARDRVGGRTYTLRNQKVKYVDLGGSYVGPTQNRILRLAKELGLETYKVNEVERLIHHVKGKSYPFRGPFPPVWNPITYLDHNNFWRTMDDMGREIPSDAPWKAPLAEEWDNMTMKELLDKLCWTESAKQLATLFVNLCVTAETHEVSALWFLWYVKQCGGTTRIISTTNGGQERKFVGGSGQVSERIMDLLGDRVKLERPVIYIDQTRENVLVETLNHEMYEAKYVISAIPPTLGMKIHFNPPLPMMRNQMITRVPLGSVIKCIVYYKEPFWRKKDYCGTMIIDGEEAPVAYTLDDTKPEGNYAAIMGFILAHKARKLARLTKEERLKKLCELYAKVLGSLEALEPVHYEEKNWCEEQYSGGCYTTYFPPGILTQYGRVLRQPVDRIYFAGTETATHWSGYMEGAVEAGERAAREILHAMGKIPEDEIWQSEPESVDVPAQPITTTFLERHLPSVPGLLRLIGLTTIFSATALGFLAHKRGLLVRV
Nature of the assay: ITC ([…] stoichiometry); also MAOB activity inhibition in vitro, IC50 […]. Format: binding.

Assay [2] addresses T1, MAOB (monoamine oxidase B). Nature of the assay: ITC. Format: binding.

As a reminder, the Kd is a measure of binding affinity in units of concentration. As to `O=C(O)[C@H](O)Cc1ccc(O)c(O)c1` [danshensu, 3-(3,4-dihydroxyphenyl)-2-hydroxy-propanoic acid], in assay [1], the Kd worked out at 16 ± 0.8 µM.

Regarding `CNCC(O)c1ccc(O)cc1` (stereo not drawn) [synephrine], in assay [2] (read-out: Kd), the Kd turned out to be 183 ± 10.3 µM.

In the case of `COc1cc(C=O)ccc1O` [vanillin], the affinity in assay [2], expressed as Kd, was 165 ± 9.1 µM.
